In US8471036B2, “Rhodacyanine derivative and pharmaceutical composition for treating leishmaniasis” (FUJIFILM Corporation, priority 2009, dated 2013):
pIC50: −log10 of the molar value. Entries after “also recorded” stand apart in the source; their conditions may differ. Where a name gives a salt, the structure may show the parent alone. Read-outs that look alike come from different tables or passages of the source.

What was measured:
[1] = tested on: Leishmania donovani (L. Don, MHOM/ET/67/L82 strain); assay: Leishmania protozoa proliferation inhibition test (amastigotes, Alamar Blue); type: cell-based; conditions: for Selective Toxicity Coefficient: (IC50 against rat L6 cells)/(IC50 against leishmania protozoa)
Experimental: In this test, Leishmania donovani (L. Don, MHOM/ET/67/L82 strain) was used. The protozoa were maintained in the Syrian Golden hamster, and amastigotes were collected from the spleen of an infected hamster. A SM medium supplemented with 10% heat-inactivated fetal bovine serum was used in the experiment, and the pH was adjusted to 5.4. The protozoa were grown at 37° C. under an atmosphere having a CO2 concentration of 5%. The activity with respect to inhibition of the proliferation of leishmania protozoa was studied for Compounds A, C, and D according to the invention for test, and for MKT-077, Compound X, and miltefosine (positive compound, existing drug) as comparative compounds. The structures of the compounds are as shown below. Each compound was dissolved in DMSO to give a test solution having a predetermined concentration. Each of the compounds to be used in the test was dissolved in DMSO to give a test solution having a concentration of 10 mg/mL. Assays were performed in 96-well culture plates, with each well containing 100 μL of the culture medium containing 10^5 amastigotes with or without the test compound at a predetermined serial dilution. The test was conducted twice. […] Each culture plate was mounted on a microplate fluorometer, and irradiated with light at an excitation wavelength of 536 nm. The intensity of fluorescence at 588 nm was measured, and the residual ratios of leishmania protozoa in the group added with the test solution and in the control were calculated. […] The selective toxicity coefficient, which is used as an index of the selectivity against leishmania protozoa, was calculated according to the following equation, and the drug efficacy was evaluated. Selective toxicity coefficient=(IC50 value of the test compound against rat L6 cells)/(IC50 value of the test compound against leishmania protozoa)

[2] = tested on: Rat-derived L6 cells (rat skeletal myoblast cells); assay: Rat L6 cell proliferation inhibition test; type: cell-based
Experimental: Rat-derived L6 cells (rat skeletal myoblast cells) were used. The cells were cultured at 37° C. at a CO2 concentration of 5%, using, as a culture medium, a RPMI 1640 medium supplemented with 1% L-glutamine (200 mM) and 10% fetal bovine serum (FBS).
Each of the compounds to be tested was dissolved in DMSO to give a test solution having a concentration of 10 mg/mL.
96-well culture plates of which each well contained 4×10^4 cells in 100 μL of the culture medium were prepared. After 24 hours, a 3-fold dilution series was prepared according to an ordinary method by adding a medium containing the compound to be tested, and the test was conducted.
After incubating the culture plates for 72 hours in an incubator, the plates were inspected with respect to proliferation activity. The inspection was conducted as follows. 10 μL of the Alamar Blue aqueous solution as described above was added to each well, and the plates were incubated for another 2 hours. Then, the culture plates were mounted on a microplate fluorometer, and irradiated with light at an excitation wavelength of 536 nm. The intensity of fluorescence at 588 nm was measured, and the residual ratios of L6 cells in the group added with the test solution and in the control were calculated.
The 50% proliferation inhibitory concentration (IC50) values were determined based on the residual ratios of cells obtained above, and the results are shown in Table 1. In Table 1, “ND” represents that the test was not conducted.

[3] = tested on: leishmania protozoa in macrophages (L. Don); assay: Leishmania protozoa proliferation inhibition test in macrophages; type: cell-based, Leishmania donovani; conditions: amastigotes in murine peritoneal macrophages, 4 days incubation, number of infected macrophages
Experimental: The inhibitory activity on the proliferation of leishmania protozoa in macrophages was examined for Compounds A and B according to the invention and comparative compounds MKT-077, Compound X, Compound Y, Compound Z, and miltefosine (positive compound, existing drug). The structures of the compounds are as shown below. Peritoneal macrophages from NMRI mice are collected 1 day after stimulation of macrophage production with an intraperitoneal injection of 2 mL of a 2% potato starch suspension. The present test was conducted at 37° C. under an atmosphere having a CO2 concentration of 5%. Each of the compounds to be used in the test was dissolved in DMSO to give a test solution having a predetermined concentration. […] After 24 hours, 100 μL of a suspension containing amastigotes (1.2×10^6/mL) was further added to each well, giving a suspension having a amastigotes/macrophages ratio of 3/1. The amastigotes were prepared in the same manner as above, and suspended in the RPMI/FBS medium. After 24 hours, the medium containing free amastigotes was removed, the cells were washed once with medium, and fresh media containing the test compound at serial dilutions (four 3-fold dilutions for each compound) were added to the wells. […] The IC50 values were determined based on the number of infected macrophages.

[4] = tested on: L. donovani (strain MHOM/ET/67/HU3); assay: Anti-leishmania activity test using mice infected with leishmania; type: in vivo, Female BALB/c mice; conditions: amastigotes per 500 liver cells
Experimental: Compound A was used as the test compound in this test. Further, a pentostam-sensitive L. donovani (strain MHOM/ET/67/HU3) was used in this test, and the protozoa were maintained in Syrian Golden hamsters, and amastigotes were isolated from spleen cells of the infected hamster. Then, an inoculum containing 7.5×10^7 amastigotes/mL in RPMI 1640 was prepared. Female BALB/c mice (20 g) were infected with the amastigotes by intravenous injection at the tail vein on day 0. On day 7 after infection, one mouse was sacrificed, liver smears were methanol-fixed and Giemsa-stained, thereby confirming infection. The test compound was dissolved in an aqueous solution containing 10% ethanol and 5% glucose, and administered to the mice once a day for 5 days from day 7 to day 11. 3 days after the completion of the administration of the drug, livers were removed and weighed, and smears were methanol-fixed and then Giemsa-stained. The number of amastigotes (average value) per 500 liver cells was determined by counting, and the infection inhibition rate was determined based on the comparison thereof with mice that had not been treated with the drug. Infection inhibition rate (%)=[1−(b−a)/(c−a)]×100 a: Initial infection rate b: Infection rate in the mice treated with the test solution c: Infection rate in the control mice

[5] = tested on: Peritoneal macrophages from NMRI mice; assay: Toxic effect on macrophages in the macrophage test; type: cell-based; conditions: murine peritoneal macrophages in the macrophage test
Experimental: Peritoneal macrophages from NMRI mice are collected 1 day after stimulation of macrophage production with an intraperitoneal injection of 2 mL of a 2% potato starch suspension. The present test was conducted at 37° C. under an atmosphere having a CO2 concentration of 5%. Each of the compounds to be used in the test was dissolved in DMSO to give a test solution having a predetermined concentration.
100 μL of a murine macrophage suspension (4×10^5/mL) in a RPMI 1640 medium containing bicarbonate and N-2-hydroxyethylpiperazine-N′-2-ethanesulfonic acid (HEPES) and supplemented with 10% heat-inactivated fetal bovine serum (RPMI/FBS medium) was added to wells of 96-well culture plates. After 24 hours, 100 μL of a suspension containing amastigotes (1.2×10^6/mL) was further added to each well, giving a suspension having a amastigotes/macrophages ratio of 3/1. The amastigotes were prepared in the same manner as above, and suspended in the RPMI/FBS medium. After 24 hours, the medium containing free amastigotes was removed, the cells were washed once with medium, and fresh media containing the test compound at serial dilutions (four 3-fold dilutions for each compound) were added to the wells. The growth of the protozoa in samples treated with the test-compound-containing media was compared with that of the control. Specifically, after 4 days of incubation, the samples were fixed with methanol, and thereafter stained with a 10% Giemsa solution. The IC50 values were determined based on the number of infected macrophages.
It is unexpected and surprising finding that such a harsh toxic effect against macrophages is reduced by introduction of a halogen atom, particularly a fluorine atom, according to the invention, and anti-leishmania activity is manifested.

[6] = Leishmania donovani, 72 h, pH 5.4, read-out: 50% Proliferation Inhibitory Concentration IC50 L. Don, amastigotes, 72 hours incubation, pH 5.4, Alamar Blue
[7] = Rattus norvegicus, L6, 72 h, read-out: 50% Proliferation Inhibitory Concentration IC50 L-6 Cells, rat L6 cells, 72 hours incubation, Alamar Blue

**Q.** With `CCn1c(=O)/c(=C/C=C2\Sc3ccccc3N2C)s/c1=C\c1sc2ccc(F)cc2[n+]1C` (as salt: maleate) [Compound C, 2-((3-ethyl-5-(2-(3-methylbenzo[d]thiazol-2(3H)-ylidene)ethylidene)-4-oxothiazolidin-2-ylidene)methyl)-5-fluoro-3-methylbenzo[d]thiazol-3-ium maleate] as the molecule, how does the melting point read?
**A.** Its melting point is 260.1 to 260.8 °C.

**Q.** Which results are given for `CCn1c(=O)/c(=C/C=C2\Sc3ccccc3N2C)s/c1=C\c1sc2ccc(F)cc2[n+]1C.[Cl-]` [Compound A, 2-((3-ethyl-5-(2-(3-methylbenzo[d]thiazole-2(3H)-ylidene)ethylidene)-4-oxothiazolidine-2-ylidene)methyl-5-fluoro-3-methylbenzo[d]thiazole-3-ium chloride]?
**A.** pIC50 ([1]; Leishmania donovani, amastigotes, 72 hours incubation, pH 5.4, Alamar Blue, read-out: 50% Proliferation Inhibitory Concentration IC50 L. Don): 7.96; pIC50 ([2]; rat L6 cells, 72 hours incubation, Alamar Blue, read-out: 50% Proliferation Inhibitory Concentration IC50 L-6 Cells): < 3.76; pIC50 ([3]; Leishmania, Macrophage, 96 h): 6.45

**Q.** With `CCn1c(=O)/c(=C/C=C2\Sc3ccccc3N2C)s/c1=C\c1sc2ccc(F)cc2[n+]1C.[Cl-]` [Compound A] as the molecule, how does the “Selective Toxicity Coefficient” value [1] read?
**A.** Its value is >15,000.

**Q.** And the “Toxicity toward normal cells” value ([2]; rat L6 cells)?
**A.** The value was “only a weak toxicity toward normal cells”.

**Q.** What about the “Infection Inhibition Rate” value ([4]; intravenous injection 0.20 mg/kg/day × 5 days) of the same molecule?
**A.** Its value is 16.1%.

**Q.** And the “Infection Inhibition Rate” value ([4]; intravenous injection 1.30 mg/kg/day × 5 days)?
**A.** Its value is 94.9%.

**Q.** What about the “Infection Inhibition Rate” value ([4]; intravenous injection 4.10 mg/kg/day × 5 days) of the same molecule?
**A.** Its value is 97.1%.

**Q.** And the melting point?
**A.** Its melting point is 274.5 to 275.6 °C.

**Q.** Which “Selective Toxicity Coefficient” value [1] does the source give for `CCn1c(=O)/c(=C/C=C2\Sc3ccccc3N2C)s/c1=C\c1sc2ccc(F)cc2[n+]1C` [Compound C, 2-((3-ethyl-5-(2-(3-methylbenzo[d]thiazol-2(3H)-ylidene)ethylidene)-4-oxothiazolidin-2-ylidene)methyl)-5-fluoro-3-methylbenzo[d]thiazol-3-ium maleate] here?
**A.** The value was 2,870.

**Q.** What about the pIC50 [1, 6] of the same molecule?
**A.** Its pIC50 is 7.60.

**Q.** And the pIC50 [2, 7]?
**A.** Its pIC50 is 4.14.

**Q.** What about the “Toxicity toward normal cells” value ([2]; rat L6 cells) of the same molecule?
**A.** Its value is “only a weak toxicity toward normal cells”.

**Q.** With `CCn1c(=O)/c(=C/C=C2\Sc3ccccc3N2C)s/c1=C\c1sc2ccc(F)cc2[n+]1C` [Compound D, 2-((3-ethyl-5-(2-(3-methylbenzo[d]thiazol-2(3H)-ylidene)ethylidene)-4-oxothiazolidin-2-ylidene)methyl)-5-fluoro-3-methylbenzo[d]thiazol-3-ium methanesulfonate] as the molecule, how does the “Selective Toxicity Coefficient” value ([1]; methanesulfonate) read?
**A.** Its value is 4,220.

**Q.** What about the pIC50 ([1]; read-out: 50% Proliferation Inhibitory Concentration IC50 L. Don, amastigotes, 72 hours incubation, pH 5.4, Alamar Blue, methanesulfonate) of the same molecule?
**A.** The pIC50 was 7.70.

**Q.** What about the pIC50 ([2]; read-out: 50% Proliferation Inhibitory Concentration IC50 L-6 Cells, rat L6 cells, 72 hours incubation, Alamar Blue, methanesulfonate) of the same molecule?
**A.** The pIC50 was 4.07.

**Q.** Which “Selective Toxicity Coefficient” value [1] does the source give for `CCn1c(=O)/c(=C/C=C2\Sc3ccccc3N2C)s/c1=C\c1sc2ccccc2[n+]1C` [Compound X, reference compound] here?
**A.** Its value is 2,400.

**Q.** And the pIC50 [1, 6]?
**A.** The pIC50 was 7.28.

**Q.** What about the pIC50 [2, 7] of the same molecule?
**A.** Its pIC50 is 3.90.

**Q.** And the “Toxic effect against macrophages” value [5]?
**A.** The value was “Could not be tested as the macrophages died”.

**Q.** With `CCN1/C(=C/C=c2\s/c(=C\c3sc4c5ccccc5ccc4[n+]3CC)n(CC)c2=O)Sc2ccc3ccccc3c21` [Compound Y] as the molecule, how does the “Toxic effect against macrophages” value [5] read?
**A.** Its value is “macrophages were killed by strong toxic effects; also recorded: Could not be tested as the macrophages died”.

**Q.** With `CCN1CCS/C1=C\C=c1/s/c(=C\c2sc3c4ccccc4ccc3[n+]2CCO)n(CC)c1=O` [Compound Z] as the molecule, how does the “Toxic effect against macrophages” value [5] read?
**A.** The value was “macrophages were killed by strong toxic effects; also recorded: Could not be tested as the macrophages died”.

**Q.** With `CCCCCCCCCCCCCCCCOP(=O)([O-])OCC[N+](C)(C)C` [Miltefosine, miltefosine, reference compound] as the molecule, how does the pIC50 ([1]; amastigotes, 72 hours incubation, pH 5.4, Alamar Blue, read-out: 50% Proliferation Inhibitory Concentration IC50 L. Don) read?
**A.** Its pIC50 is 6.37.

**Q.** And the pIC50 [3]?
**A.** The pIC50 was 6.09.
